Reference: PMC9116245, “New 1,2,3-triazole linked ciprofloxacin-chalcones induce DNA damage by inhibiting human topoisomerase I& II and tubulin polymerization” (Journal of Enzyme Inhibition and Medicinal Chemistry, 2022)

Assays:
786-0 = test: NCI one-dose screen; type: cell-based; conditions: Homo sapiens; 786-0, 10 µM; read-out: Growth Percent
Method: (§1) For screening of anticancer properties, all the developed compounds were chosen by the (NCI) for in-vitro antitumor evaluation. The assay was carried out using 59 human cancer cell lines obtained from nine tumour subpanels (breast, ovarian, melanoma, leukaemia, renal, CNS, lung, prostate, and colon cancer cell lines). Compounds were assessed at a 10 µM concentration. […] Also, hybrids 4a, 4b, 4e, 4i and 4j produced significant anti-proliferative effect in several cancer cells, particularly in leukaemia (RPMI-8226) and colon (HCT116) cells with growth percent of 47.87, −14.59, −24.56, −24.42, −15.84, −9.74, −53.36, −10.26, −31.29, and −39.51%, respectively.
(§2) The method description for NCI anticancer screening is provided in detail in the standard NCI-60 testing protocol.

A549/ATCC = test: NCI one-dose screen; type: cell-based; conditions: Homo sapiens, read-out: Growth Percent
Method: as §1, §2

ACHN = test: NCI one-dose screen; type: cell-based; conditions: Homo sapiens, read-out: Growth Percent
Method: as §1, §2

CCRF-CEM = test: NCI one-dose screen; type: cell-based; conditions: Homo sapiens, read-out: Growth Percent
Method: as §1, §2

DU-145 = test: NCI one-dose screen; type: cell-based; conditions: Homo sapiens; DU-145, 10 µM; read-out: Growth Percent
Method: as §1, §2

HCC-2998 = test: NCI one-dose screen; type: cell-based; conditions: Homo sapiens; HCC-2998, 10 µM; read-out: Growth Percent
Method: as §1, §2

HOP-62 = test: NCI one-dose screen; type: cell-based; conditions: Homo sapiens; HOP-62, 10 µM; read-out: Growth Percent
Method: as §1, §2

HT29 = test: NCI one-dose screen; type: cell-based; conditions: Homo sapiens, HT-29; HT29, 10 µM; read-out: Growth Percent
Method: as §1, §2

IGROV1 = test: NCI one-dose screen; type: cell-based; conditions: Homo sapiens, IGROV-1; IGROV1, 10 µM; read-out: Growth Percent
Method: as §1, §2

LOX IMVI = test: NCI one-dose screen; type: cell-based; conditions: Homo sapiens, read-out: Growth Percent
Method: as §1, §2

MDA-MB-435 = test: NCI one-dose screen; type: cell-based; conditions: Homo sapiens; MDA-MB-435, 10 µM; read-out: Growth Percent
Method: as §1, §2

MDA-MB-468 = test: NCI one-dose screen; type: cell-based; conditions: Homo sapiens; MDA-MB-468, 10 µM; read-out: Growth Percent
Method: as §1, §2

NCI-H226 = test: NCI one-dose screen; type: cell-based; conditions: Homo sapiens; NCI-H226, 10 µM; read-out: Growth Percent
Method: as §1, §2

NCI-H460 = test: NCI one-dose screen; type: cell-based; conditions: Homo sapiens; NCI-H460, 10 µM; read-out: Growth Percent
Method: as §1, §2

NCI-H522 = test: NCI one-dose screen; type: cell-based; conditions: Homo sapiens; NCI-H522, 10 µM; read-out: Growth Percent
Method: as §1, §2

OVCAR-4 = test: NCI one-dose screen; type: cell-based; conditions: Homo sapiens; OVCAR-4, 10 µM; read-out: Growth Percent
Method: as §1, §2

OVCAR-8 = test: NCI one-dose screen; type: cell-based; conditions: Homo sapiens; OVCAR-8, 10 µM; read-out: Growth Percent
Method: as §1, §2

PC-3 = test: NCI one-dose screen; type: cell-based; conditions: Homo sapiens; PC-3, 10 µM; read-out: Growth Percent
Method: as §1, §2

RXF 393 = test: NCI one-dose screen; type: cell-based; conditions: Homo sapiens; RXF 393, 10 µM; read-out: Growth Percent
Method: as §1, §2

SK-MEL-5 = test: NCI one-dose screen; type: cell-based; conditions: Homo sapiens; SK-MEL-5, 10 µM; read-out: Growth Percent
Method: as §1, §2

SK-OV-3 = test: NCI one-dose screen; type: cell-based; conditions: Homo sapiens; SK-OV-3, 10 µM; read-out: Growth Percent
Method: as §1, §2

SN12C = test: NCI one-dose screen; type: cell-based; conditions: Homo sapiens, read-out: Growth Percent
Method: as §1, §2

SNB-19 = test: NCI one-dose screen; type: cell-based; conditions: Homo sapiens; SNB-19, 10 µM; read-out: Growth Percent
Method: as §1, §2

SNB-75 = test: NCI one-dose screen; type: cell-based; conditions: Homo sapiens; SNB-75, 10 µM; read-out: Growth Percent
Method: as §1, §2

SR = test: NCI one-dose screen; type: cell-based; conditions: Homo sapiens, read-out: Growth Percent
Method: as §1, §2

SW-620 = test: NCI one-dose screen; type: cell-based; conditions: Homo sapiens; SW-620, 10 µM; read-out: Growth Percent
Method: as §1, §2

TK-10 = test: NCI one-dose screen; type: cell-based; conditions: Homo sapiens; TK-10, 10 µM; read-out: Growth Percent
Method: as §1, §2

UACC-257 = test: NCI one-dose screen; type: cell-based; conditions: Homo sapiens; UACC-257, 10 µM; read-out: Growth Percent
Method: as §1, §2

UACC-62 = test: NCI one-dose screen; type: cell-based; conditions: Homo sapiens; UACC-62, 10 µM; read-out: Growth Percent
Method: as §1, §2

HCT-116 = test: NCI one-dose screen; type: cell-based, human; conditions: HCT-116, 10 µM; for activity at 10 µM: Homo sapiens, read-out: Growth Percent
Method: as §1, §2

RPMI-8226 = test: NCI one-dose screen; type: cell-based, human; conditions: RPMI-8226, 10 µM; for activity at 10 µM: Homo sapiens, read-out: Growth Percent
Method: as §1, §2

[1] = test system: 59 human cancer cell lines; test: NCI one-dose screen, whole panel; type: cell-based; conditions: Homo sapiens, mean over the panel, read-out: Mean Growth Percent
Method: as §1, §2

Caco-2 = test: MTT assay; type: cell-based; conditions: Homo sapiens; Caco-2, MTT assay, 24 h incubation
Method: (§3) The proliferation of colorectal cancer cells (HCT116, HT29 and Caco-2) was assessed using MTT assay as previously reported. Cells were treated with increasing concentrations of 1, 5, 10, 20, 40, 80 or 100 µM of CP hybrids 4a-j, doxorubicin, or DMSO. See Supplementary Appendix A.

HCT116 = test: MTT assay; type: cell-based; conditions: Homo sapiens, HCT-116, 24 h incubation
Method: as §3

HT-29 = test: MTT assay; type: cell-based; conditions: Homo sapiens; HT-29, MTT assay, 24 h incubation
Method: as §3

SMILES	activity at 10 µM (786-0)	activity at 10 µM (A549/ATCC)	activity at 10 µM (ACHN)	activity at 10 µM (CCRF-CEM)	activity at 10 µM (DU-145)	activity at 10 µM (HCC-2998)	activity at 10 µM (HOP-62)	activity at 10 µM (HT29)	activity at 10 µM (IGROV1)	activity at 10 µM (LOX IMVI)	activity at 10 µM (MDA-MB-435)	activity at 10 µM (MDA-MB-468)	activity at 10 µM (NCI-H226)	activity at 10 µM (NCI-H460)	activity at 10 µM (NCI-H522)	activity at 10 µM (OVCAR-4)	activity at 10 µM (OVCAR-8)	activity at 10 µM (PC-3)	activity at 10 µM (RXF 393)	activity at 10 µM (SK-MEL-5)	other results
O=C(/C=C/c1ccc(Br)cc1)c1ccc(-n2cc(CN3CCN(c4cc5c(cc4F)c(=O)c(C(=O)O)cn5C4CC4)CC3)nn2)cc1 [Compound 4d, (E)-7-(4-((1-(4-(3-(4-bromophenyl)acryloyl)phenyl)-1H-1,2,3-triazol-4-yl)methyl)piperazin-1-yl)-1-cyclopropyl-6-fluoro-4-oxo-1,4-dihydroquinoline-3-carboxylic acid]	72.2%	90.5%	93.4%	34.6%	92.3%	83.3%	85.4%	99.2%	79.4%	55.7%	81.9%	72.5%	74.8%	85.9%	88%	96.7%	80.7%	84.7%	55.7%	79.7%	activity at 10 µM (SK-OV-3): 79%; activity at 10 µM (SN12C): 58.8%; activity at 10 µM (SNB-19): 76.7%; activity at 10 µM (SNB-75): 85.7%; activity at 10 µM (SR): 21.3%; activity at 10 µM (SW-620): 85.9%; activity at 10 µM (TK-10): 97.8%; activity at 10 µM (UACC-257): 90.1%; activity at 10 µM (UACC-62): 72.8%; activity at 10 µM (HCT-116): 17.3%; activity at 10 µM (RPMI-8226): 6.02%; activity at 10 µM [1]: 77.4%; IC50 (Caco-2): 7.19 ± 1.69 µM; IC50 (HCT116): 8.67 ± 2.15 µM; IC50 (HT-29): 62.5 ± 7.1 µM
COc1ccc(/C=C/C(=O)c2ccc(-n3cc(CN4CCN(c5cc6c(cc5F)c(=O)c(C(=O)O)cn6C5CC5)CC4)nn3)cc2)cc1OC [Compound 4i, (E)-1-cyclopropyl-7-(4-((1-(4-(3–(3,4-dimethoxyphenyl)acryloyl)phenyl)-1H-1,2,3-triazol-4-yl)methyl)piperazin-1-yl)-6-fluoro-4-oxo-1,4-dihydroquinoline-3-carboxylic acid]	71.9%	66.1%	85%	44%	83.2%	44%	75.6%	29.6%	26.6%	27.9%	22.2%	26.3%	67.3%	77.9%	67.6%	88%	67.4%	56.3%	64.2%	69%	activity at 10 µM (SK-OV-3): 76.9%; activity at 10 µM (SN12C): 32.6%; activity at 10 µM (SNB-19): 67.7%; activity at 10 µM (SNB-75): 58.3%; activity at 10 µM (SR): -2.25%; activity at 10 µM (SW-620): 32.8%; activity at 10 µM (TK-10): 104%; activity at 10 µM (UACC-257): 78.7%; activity at 10 µM (UACC-62): 53.9%; Growth Percent (HCT-116): -31.29%; activity at 10 µM (HCT-116): -31.3%; activity at 10 µM (RPMI-8226): -24.4%; Growth Percent (RPMI-8226): -24.42%; activity at 10 µM [1]: 59.5%; IC50 (Caco-2): 11.3 ± 2.39 µM; IC50 (HCT116): 4.87 ± 0.78 µM; IC50 (HT-29): 18.6 ± 3.19 µM
COc1ccc(/C=C/C(=O)c2ccc(-n3cc(CN4CCN(c5cc6c(cc5F)c(=O)c(C(=O)O)cn6C5CC5)CC4)nn3)cc2)cc1 [Compound 4g, (E)-1-Cyclopropyl-6-fluoro-7-(4-((1-(4-(3-(4-methoxyphenyl)acryloyl)phenyl)-1H-1,2,3-triazol-4-yl)methyl)piperazin-1-yl)-4-oxo-1,4-dihydroquinoline-3-carboxylic acid]	78.1%	89%	89.9%	74.6%	90.8%	90.7%	85.5%	78.2%	59%	56.9%	82.2%	74.4%	76.3%	82.2%	79.1%	94.4%	83.6%	89%	75%	81.6%	activity at 10 µM (SK-OV-3): 84.6%; activity at 10 µM (SN12C): 58.2%; activity at 10 µM (SNB-19): 84.1%; activity at 10 µM (SNB-75): 91.6%; activity at 10 µM (SR): 13.1%; activity at 10 µM (SW-620): 81.7%; activity at 10 µM (TK-10): 92.4%; activity at 10 µM (UACC-257): 91.7%; activity at 10 µM (UACC-62): 74.6%; activity at 10 µM (HCT-116): 2.68%; activity at 10 µM (RPMI-8226): 11.5%; activity at 10 µM [1]: 78.8%; IC50 (Caco-2): 11.4 ± 3.19 µM; IC50 (HCT116): 6.11 ± 1.03 µM; IC50 (HT-29): 34 ± 3.69 µM
O=C(/C=C/c1ccc(F)cc1)c1ccc(-n2cc(CN3CCN(c4cc5c(cc4F)c(=O)c(C(=O)O)cn5C4CC4)CC3)nn2)cc1 [Compound 4e, (E)-1-cyclopropyl-6-fluoro-7–(4-((1–(4-(3-(4-fluorophenyl)acryloyl)phenyl)-1H-1,2,3-triazol-4-yl)methyl)piperazin-1-yl)-4-oxo-1,4-dihydroquinoline-3-carboxylic acid]	33.2%	82.2%	88.5%	20%	51.6%	79.3%	67.3%	28%	39.6%	20.3%	64.7%	32.9%	81.7%	32.5%	48.5%	93.1%	23.3%	57.4%	45%	79%	activity at 10 µM (SK-OV-3): 71.6%; activity at 10 µM (SN12C): 8.77%; activity at 10 µM (SNB-19): 31.6%; activity at 10 µM (SNB-75): 68.1%; activity at 10 µM (SR): 7.11%; activity at 10 µM (SW-620): 43.2%; activity at 10 µM (TK-10): 85.2%; activity at 10 µM (UACC-257): 88.3%; activity at 10 µM (UACC-62): 55.8%; Growth Percent (HCT-116): -10.26%; activity at 10 µM (HCT-116): -10.3%; activity at 10 µM (RPMI-8226): -24.6%; Growth Percent (RPMI-8226): -24.56%; activity at 10 µM [1]: 53.9%; IC50 (Caco-2): 4.19 ± 1.13 µM; IC50 (HCT116): 4.32 ± 0.98 µM; IC50 (HT-29): 8.67 ± 2.94 µM
